From patent EP0287014A2, “Cholesteryl-phosphoryl choline for the reduction of the cholesterol level” (F. HOFFMANN-LA ROCHE AG, priority 1987, dated 1988)
Like-named read-outs stand apart in the source and are kept apart here.

Columns and labels:
[1] = test system: Totenkopfäffchen; assay: Inhibition of cholesterol absorption after oral [14C]-cholesterol test meal, faecal radioactivity over 2.5 days; assay type: in vivo; settings: in percent of untreated control animals
Experimental: Einer Gruppe von 12 Totenkopfäffchen wurde ein Gemisch enthaltend Triolein, Stärke, Milchpulver, 1 mg [¹⁴C]-Cholesterin und 0.05 mg [³H]-Polyäthylenglycol und unmittelbar darauf eine Dispersion von CPC in 5% Gummi arabicum oral verabreicht. Hierauf wurde der Kot während 2,5 Tagen gesammelt. Die ausgeschiedene [¹⁴C]-Radioaktivität des Cholesterins wurde unter Berücksichtigung der [³H]-Radioaktivität des internen Standards Polyäthylenglycol ermittelt. Es wurde die Cholesterinabsorption (Differenz zwischen der verabreichten und der ausgeschiedenen [¹⁴C]-Radioaktivität des Cholesterins) berechnet und in der nachfolgenden Tabelle in Prozenten von unbehandelten Kontrolltieren angegeben.

[2] = test system: Totenkopfäffchen; assay: Plasma cholesterol level during 14 days of feeding with coconut-oil diet; assay type: in vivo; settings: for Senkung des Cholesterinspiegels in Prozenten der Kontrolltieren: versus placebo
Experimental: Totenkopfäffchen wurde pro Tier und Tag 239 mg Lactose als Placebo oder 239 mg CPC zusammen mit Kokonussöl enthaltendem Futter während 14 Tagen verabreicht. Jede 3 oder 4 Tage wurde den Tieren venöses Blut entnommen und der Cholesterinspiegel im Blutplasma ermittelt. In der nachstehenden Tabelle wird der Cholesterinspiegel in Prozenten der Vorperiode sowie die Senkung des Cholesterinspiegels in Prozenten der Kontrolltieren angegeben.

[3] = Acute toxicity (LD50); settings: mouse, in vivo, Maus, read-out: LD₅₀
Experimental: Was die Toxizität anbelangt, beträgt die LD₅₀ von CPC 125 mg/kg i.v. und 4000 mg/kg p.o. an der Maus.

With `CC(C)CCC[C@@H](C)[C@H]1CC[C@H]2[C@@H]3CC=C4C[C@@H](OP(=O)([O-])OCC[N+](C)(C)C)CC[C@]4(C)[C@H]3CC[C@]12C` [CPC, Cholesteryl-phosphorylcholin] the “Cholesterinabsorption (%)” value ([1]; Dosis 30 µMol/kg oral) was 90 ± 17%, the “Cholesterinabsorption (%)” value ([1]; Dosis 100 µMol/kg oral) was 60 ± 10% and the “Cholesterinabsorption (%)” value ([1]; Dosis 300 µMol/kg oral) was 12 ± 6%. The “Cholesterinspiegel im Blutplasma in Prozenten der Vorperiode” value (“Cholesterinspiegel im Blutplasma” below) ([2]; Tag 1, vor der Behandlung, 239 mg CPC per animal and day) was 100±8%, the “Senkung des Cholesterinspiegels in Prozenten der Kontrolltieren” value (“Senkung des Cholesterinspiegels” below) ([2]; Tag 1, vor der Behandlung) was 0% and the “Cholesterinspiegel im Blutplasma” value ([2]; Tag 4, während der Behandlung, 239 mg CPC per animal and day) was 88±6%. For the same compound, the “Senkung des Cholesterinspiegels” value ([2]; Tag 4, während der Behandlung) was 9%, the “Cholesterinspiegel im Blutplasma” value ([2]; Tag 7, während der Behandlung, 239 mg CPC per animal and day) was 84±4% and the “Senkung des Cholesterinspiegels” value ([2]; Tag 7, während der Behandlung) was 20%. The “Cholesterinspiegel im Blutplasma” value ([2]; Tag 11, während der Behandlung, 239 mg CPC per animal and day) was 93±13%, the “Senkung des Cholesterinspiegels” value ([2]; Tag 11, während der Behandlung) was 13% and the “Cholesterinspiegel im Blutplasma” value ([2]; Tag 14, während der Behandlung, 239 mg CPC per animal and day) was 86±11%. The “Senkung des Cholesterinspiegels” value ([2]; Tag 14, während der Behandlung) was 18%, the “Cholesterinspiegel im Blutplasma” value ([2]; Tag 18, nach der Behandlung, 239 mg CPC per animal and day for 14 days) was 94±13% and the “Senkung des Cholesterinspiegels” value ([2]; Tag 18, nach der Behandlung) was 9%. The “Cholesterinspiegel im Blutplasma” value ([2]; Tag 21, nach der Behandlung, 239 mg CPC per animal and day for 14 days) was 97±11%, the “Senkung des Cholesterinspiegels” value ([2]; Tag 21, nach der Behandlung) was 10% and the “reversible Senkung des Plasmacholesterols” value ([2]; summary, versus placebo values and values of the pre-period) was 10 bis 20%. For the same compound, the LD50 ([3]; iv) was 125 mg/kg and the LD50 ([3]; po) was 4000 mg/kg.
